Measurements: patent US8158810B2 (Gilead Sciences, Inc., priority 2006, dated 2012)

How the values were obtained:
Male Sprague-Dawley rats = assay: Cocaine self administration and reinstatement model (cocaine induced relapse); type: in vivo, rat; settings: for Lever presses (Avg ± Std. error): significantly different from Vehicle, p < 0.05
Experimental: Intravenous cocaine (0.35 mg/kg/inj) was used in an operant self administration and reinstatement model in rats. In this model, rats addicted to cocaine repeatedly pressed a lever to obtain an intravenous dose (iv) of cocaine. When cocaine was removed, rats stopped pressing the lever. However, rats resumed lever pressing for cocaine (reinstatement) if subjected to a small intraperitoneal (ip) dose (10 mg/kg) of cocaine that normally has no effect in naïve animals. This is a valid animal model of relapse in cocaine addicted humans, and tests the ability of compounds of Formula I to block cocaine craving and relapse.
Male Sprague-Dawley rats with jugular vein catheterization were used. Rats were presented with a choice of two levers in the test/training chamber. […] The following day the reinforcer was switched to FR1 lever pressing for cocaine (0.35 mg/kg/inj, delivered in 0.27 sec). […] Daily training sessions for each group lasted 2 hours, or until a subject earned 200 drug infusions, whichever came first. The subjects remained in drug self-administration training mode until acquisition criterion was met (average presses on the active lever varied by <10% over 3 consecutive training days). This typically takes 10-14 days.
For extinction and reinstatement experiments, rats were required to display stable responding (variability not higher than 15% in 2 consecutive sessions) on the FR1 schedule of reinforcement. […] When average responding across three consecutive extinction sessions fell to 15% of responding during maintenance, subjects were tested for reinstatement. In cocaine-experienced animals, reinstatement was primed with a non-contingent injection of cocaine (10 mg/kg ip) immediately before the reinstatement session. In order to increase statistical power and therefore decrease animal usage, a second extinction period was initiated 3-4 days after the first, which allowed for additional within-subjects comparisons. Experiments used a between-session-training and testing method in which animals were trained to self administer drug. Their behavior was then extinguished and then reinstatement was primed on different days.
Animals were trained to self administer cocaine (0.35 mg/kg/inj) until they reached stable responding. They were then trained in the same chambers but cocaine was no longer available.

Wistar-derived male rats = assay: Nicotine self-administration; type: in vivo, rat; settings: increasing doses (7.5, 10, 15 mg/kg i.p.) 30 minutes prior to session
Experimental: Wistar-derived male rats (250-300 g) were housed in groups of two and maintained in a temperature-controlled environment on a 12 hour: 12 hour light cycle (0600 h on-1800 h off), upon arrival in the laboratory. Animals were given free access to food and water during a one-week habituation period to the laboratory. […] Animals were handled daily for several days to desensitize them to handling stress before experimental testing. The sample sizes (n=8) provided reliable estimates of drug effects.
Mecamylamine was dissolved in 0.09% isotonic saline and administered at a volume of 1 ml/kg.
Food training and nicotine self-administration took place in 8 standard Coulbourn operant chambers. Each chamber was housed in a sound-attenuated box. Operant chambers were equipped with two levers, mounted 2 cm above the floor, and a cue light mounted 2 cm above the right lever on the back wall of the chamber. For food training, a food hopper was located 2-cm to the left/right of either lever, in the middle of the back wall. Intravenous infusions were delivered in a volume of 0.1 ml over a 1 second interval via an infusion pump (Razel, Conn.) housed outside of the sound attenuated chamber.
Initially, rats were restricted to 15 grams of food daily (approximately 85% of their free-feeding body weight). […]

hMAO-B = molecular target: T1, hMAO-B (Homo sapiens, UniProt P27338); assay: MAO-B inhibition assay; type: biochemical; settings: at 10 μM; No = no inhibition; printed in the IC50 hMAO-B column
T1 construct: purchased Sigma M7441
T1 sequence (P27338 1-520): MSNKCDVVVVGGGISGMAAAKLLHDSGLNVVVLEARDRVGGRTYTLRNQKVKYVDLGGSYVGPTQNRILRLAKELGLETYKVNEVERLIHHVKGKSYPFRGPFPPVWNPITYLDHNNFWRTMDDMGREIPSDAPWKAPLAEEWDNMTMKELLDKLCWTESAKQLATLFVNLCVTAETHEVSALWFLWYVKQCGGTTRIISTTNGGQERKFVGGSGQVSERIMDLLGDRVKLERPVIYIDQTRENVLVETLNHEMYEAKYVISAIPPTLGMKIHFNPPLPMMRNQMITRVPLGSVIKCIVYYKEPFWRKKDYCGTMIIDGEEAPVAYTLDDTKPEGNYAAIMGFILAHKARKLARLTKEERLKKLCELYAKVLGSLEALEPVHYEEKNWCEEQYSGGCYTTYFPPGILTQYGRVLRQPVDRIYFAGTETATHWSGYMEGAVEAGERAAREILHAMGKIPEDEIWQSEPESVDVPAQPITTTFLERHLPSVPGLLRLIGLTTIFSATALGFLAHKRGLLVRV
Experimental: MAO-A (Sigma M7316) and MAO-B (Sigma M7441) inhibition assays were conducted in 96-well micro-plates according to the method described by Zhou et al. [Analytical Biochemistry 253, 169-174, 1997]. […] Reactions were initiated by the addition of a pre-mixed solution of tyramine, horseradish peroxidase and Amplex Red, and were allowed to proceed at 37° C. for 30 min. Enzyme activities were determined by measuring absorbance at 570 nm (SpectralMax Plate reader), absorbance of oxidized Amplex Red generated by this horseradish peroxidase-coupled reaction. Nonspecifically formed products were determined in the presence of 2 and 10 µM clorgyline and deprenyl for MAO-A and MAO-B, respectively. IC50 values were determined by fitting concentration-inhibition data to sigmoidal dose-response curves with two-floating parameters: IC50 and Hill coefficient.

[1] = molecular target: T2, hALDH2 (recombinant human mitochondria ALDH) (Homo sapiens, UniProt P05091); assay: ALDH2 inhibition assay; type: biochemical
T2 sequence (P05091 18-517): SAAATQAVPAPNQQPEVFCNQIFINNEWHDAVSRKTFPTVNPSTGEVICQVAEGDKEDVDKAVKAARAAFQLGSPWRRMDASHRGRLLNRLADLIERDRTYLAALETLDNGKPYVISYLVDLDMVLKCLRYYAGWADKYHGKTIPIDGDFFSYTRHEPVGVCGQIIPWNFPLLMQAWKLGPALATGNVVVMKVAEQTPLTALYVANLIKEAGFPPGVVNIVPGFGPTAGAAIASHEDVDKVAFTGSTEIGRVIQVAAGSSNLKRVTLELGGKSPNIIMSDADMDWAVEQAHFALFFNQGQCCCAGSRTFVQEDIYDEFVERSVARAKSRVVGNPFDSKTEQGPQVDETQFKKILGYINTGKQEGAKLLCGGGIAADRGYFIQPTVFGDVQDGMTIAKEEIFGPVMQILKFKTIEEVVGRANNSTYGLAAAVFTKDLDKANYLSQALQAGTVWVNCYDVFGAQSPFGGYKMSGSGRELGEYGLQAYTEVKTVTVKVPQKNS
Experimental: ALDH2 inhibition assays were performed in sodium phosphate buffer (50 mM, pH 7.4) containing 1.2 mM NAD^+ (Sigma N7004), 1 nM hALDH2 (recombinant human mitochondria ALDH), various concentrations of test compounds (from 0.03 nM to […]), and 0.15 mM freshly prepared formaldehyde solution (Ladd Research 20295). Reactions were initiated by the addition of formaldehyde and rates were recorded by monitoring NADH formation in a temperature controlled (25° C.) FluoroMax-2 Fluorimeter with excitation and emission wavelengths set at 340 and 460 nm, respectively. […] Normally, IC50 values were determined by fitting concentration-inhibition data to sigmoidal dose-response curves with two-floating parameters: IC50 and Hill coefficient. When tight binding situation was suspected, apparent Ki values were estimated by fitting dose-response data to Morrison's equation [Methods in Enzymology 63, 437-467, 1979].

hMAO-A = molecular target: T3, hMAO-A (Homo sapiens, UniProt P21397); assay: MAO-A inhibition assay; type: biochemical; settings: up to 10 μM; No = no inhibition; printed in the IC50 hMAO-A column
T3 construct: purchased Sigma M7316
T3 sequence (P21397 1-527): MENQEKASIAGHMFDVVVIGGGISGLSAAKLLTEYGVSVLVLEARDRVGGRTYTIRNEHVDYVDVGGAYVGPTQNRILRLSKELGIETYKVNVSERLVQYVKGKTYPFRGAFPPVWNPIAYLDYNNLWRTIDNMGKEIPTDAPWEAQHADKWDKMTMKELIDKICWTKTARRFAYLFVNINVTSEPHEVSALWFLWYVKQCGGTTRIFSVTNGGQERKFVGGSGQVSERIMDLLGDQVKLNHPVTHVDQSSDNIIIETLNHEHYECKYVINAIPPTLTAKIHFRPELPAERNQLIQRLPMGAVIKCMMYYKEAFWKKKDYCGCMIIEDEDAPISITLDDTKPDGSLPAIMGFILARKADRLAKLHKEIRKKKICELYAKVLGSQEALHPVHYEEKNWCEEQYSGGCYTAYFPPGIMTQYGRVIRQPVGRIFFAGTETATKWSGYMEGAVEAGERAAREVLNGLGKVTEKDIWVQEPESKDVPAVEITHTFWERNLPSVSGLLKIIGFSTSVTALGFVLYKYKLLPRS
Summary of the method: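 Human MAO-A (0.6 U/ml) or MAO-B (2.5 U/ml) in 0.1 M potassium phosphate pH 7.5 with 0.5 mM tyramine, 0.12 mM Amplex Red and HRP; compounds at 0.1 nM-10 μM, 30 min at 37 °C, absorbance at 570 nm. Background set with clorgyline (MAO-A) or deprenyl (MAO-B); IC50 from sigmoidal fits.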

Molecule	Lever presses (Avg ± Std. error) (Male Sprague-Dawley rats; 7.5 mg/kg prior to cocaine priming dose (10 mg/kg), N = 9)	Lever presses (Avg ± Std. error) (Male Sprague-Dawley rats; 10 mg/kg prior to cocaine priming (10 mg/kg) dose, N = 6)	lever presses responding after priming injection of cocaine (Male Sprague-Dawley rats; 7.5 and 10 mg/kg prior to the priming injection of cocaine (10 mg/kg))	relapse for cocaine (Male Sprague-Dawley rats; ip injections, rats)	number of bar presses (number of infusions) for nicotine administration (Wistar-derived male rats)	hMAO-B inhibition at 10 μM (hMAO-B)	IC50 [1]	hMAO-A inhibition up to 10 μM (hMAO-A)
CS(=O)(=O)Nc1ccc(-c2coc3cc(OCc4cccc(C(=O)O)c4)ccc3c2=O)cc1 [Cmpd A, 3-[(3-{4-[(methylsulfonyl)amino]phenyl}-4-oxochromen-7-yloxy)methyl]-benzoic acid]	24.94 ± 7.92	19.83 ± 11.30	did not show an increase in their lever presses responding	dose dependently blocked relapse for cocaine	reduced the number of bar presses			
O=c1c(-c2ccc(O)cc2)coc2cc(OCCc3nnc(-c4ccc(F)cc4)o3)ccc12 [PT-112, 7-{[5-(4-fluorophenyl)(1,3,4-oxadiazol-2-yl)]echoxy}-3-(4-hydroxyphenyl)chromen-4-one]						No	5 nM	No
ethyl 3-[7-({3-[3-fluoro-5-(trifluoromethyl)phenyl](1,2,4-oxadiazol-5-yl)}ethoxy)-4-oxochromen-3-yl]benzoate [PT-76]						21%	63 nM	No
